# Test results from PubChem BioAssay (NCI).
#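 Results reflect a 48-hour exposure of cells in 96-well plates to compound at five concentrations. At the GI50, growth is halved. TGI denotes the concentration required for complete inhibition of growth.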
# How the values were obtained:
# Assay in all cases: growth of human tumour cells (NCI), 48 h
# 786-0 renal = test system: 786-0 renal
# A498 renal = test system: A498 renal
# A549 NSCLC = test system: A549 NSCLC
# ACHN renal = test system: ACHN renal
# BT-549 breast = test system: BT-549 breast
# CAKI-1 renal = test system: CAKI-1 renal
# CCRF-CEM leukemia = test system: CCRF-CEM leukemia
# COLO 205 colon = test system: COLO 205 colon
# DU-145 prostate = test system: DU-145 prostate
# EKVX NSCLC = test system: EKVX NSCLC
# HCC-2998 colon = test system: HCC-2998 colon
# HCT-116 colon = test system: HCT-116 colon
# HCT-15 colon = test system: HCT-15 colon
# HL-60(TB) leukemia = test system: HL-60(TB) leukemia
# HOP-62 NSCLC = test system: HOP-62 NSCLC
# HOP-92 NSCLC = test system: HOP-92 NSCLC
# HS 578T breast = test system: HS 578T breast
# HT29 colon = test system: HT29 colon
# IGROV1 ovarian = test system: IGROV1 ovarian
# K-562 leukemia = test system: K-562 leukemia
# KM12 colon = test system: KM12 colon
# LOX IMVI melanoma = test system: LOX IMVI melanoma
# M14 melanoma = test system: M14 melanoma
# MALME-3M melanoma = test system: MALME-3M melanoma
# MCF7 breast = test system: MCF7 breast
# MDA-MB-231 breast = test system: MDA-MB-231 breast
# MDA-MB-435 = test system: MDA-MB-435
# MOLT-4 leukemia = test system: MOLT-4 leukemia
# NCI-H226 lung = test system: NCI-H226 lung
smiles,measurement,setting,value
CNC(=O)c1cc(-c2ccc(NC(=O)Nc3ccc(N4CCN(C)CC4)c(C(F)(F)F)c3)cc2)nc2cccnc12,GI50,786-0 renal,1.81 µM
same,TGI,786-0 renal,3.52 µM
same,GI50,A498 renal,> 100 µM
same,TGI,A498 renal,> 100 µM
same,GI50,A549 NSCLC,10.9 µM
same,TGI,A549 NSCLC,24.3 µM
same,GI50,ACHN renal,15.5 µM
same,TGI,ACHN renal,28.9 µM
same,GI50,BT-549 breast,16.5 µM
same,TGI,BT-549 breast,35.3 µM
same,GI50,CAKI-1 renal,16.1 µM
same,TGI,CAKI-1 renal,29.6 µM
same,GI50,CCRF-CEM leukemia,3.16 µM
same,TGI,CCRF-CEM leukemia,74.2 µM
same,GI50,COLO 205 colon,16.8 µM
same,TGI,COLO 205 colon,32.8 µM
same,GI50,DU-145 prostate,17.6 µM
same,TGI,DU-145 prostate,35.6 µM
same,GI50,EKVX NSCLC,17.9 µM
same,TGI,EKVX NSCLC,33.9 µM
same,GI50,HCC-2998 colon,18 µM
same,TGI,HCC-2998 colon,34.6 µM
same,GI50,HCT-116 colon,4.09 µM
same,TGI,HCT-116 colon,75.6 µM
same,GI50,HCT-15 colon,2.07 µM
same,TGI,HCT-15 colon,4.33 µM
same,GI50,HL-60(TB) leukemia,16.1 µM
same,TGI,HL-60(TB) leukemia,38.7 µM
same,GI50,HOP-62 NSCLC,16.4 µM
same,TGI,HOP-62 NSCLC,32.2 µM
same,GI50,HOP-92 NSCLC,6.54 µM
same,TGI,HOP-92 NSCLC,> 100 µM
same,GI50,HS 578T breast,15 µM
same,TGI,HS 578T breast,38.9 µM
same,GI50,HT29 colon,1.92 µM
same,TGI,HT29 colon,4.19 µM
same,GI50,IGROV1 ovarian,17.7 µM
same,TGI,IGROV1 ovarian,36.6 µM
same,GI50,K-562 leukemia,2.12 µM
same,TGI,K-562 leukemia,5.35 µM
same,GI50,KM12 colon,17.4 µM
same,TGI,KM12 colon,43.3 µM
same,GI50,LOX IMVI melanoma,0.656 µM
same,TGI,LOX IMVI melanoma,24.5 µM
same,GI50,M14 melanoma,1.79 µM
same,TGI,M14 melanoma,3.71 µM
same,GI50,MALME-3M melanoma,1.68 µM
same,TGI,MALME-3M melanoma,3.21 µM
same,GI50,MCF7 breast,1.67 µM
same,TGI,MCF7 breast,3.45 µM
same,GI50,MDA-MB-231 breast,17.5 µM
same,TGI,MDA-MB-231 breast,38.1 µM
same,GI50,MDA-MB-435,1.75 µM
same,TGI,MDA-MB-435,3.27 µM
same,GI50,MOLT-4 leukemia,2.79 µM
same,TGI,MOLT-4 leukemia,14.9 µM
same,GI50,NCI-H226 lung,18 µM
